Measurements taken from patent publication US10907168B2, “Jasmonic acid pathway activator” (MEDICAGO INC., priority 2015, dated 2021).

Tested on: C5-1 antibody
Experiment: C5-1 antibody quantification by ELISA in agroinfiltrated leaves
Format: in vivo, Nicotiana benthamiana
Settings: ELISA; 1 mM, leaves treated 24 h before infiltration
Protocol: Forty-two day-old N. benthamiana plants grown in greenhouse were used for the experiments. Each plant was sprayed evenly with 50 ml of 0.5 mM, 1 mM or 2 mM MeJA in water containing 0.1% (v/v) Triton X-100 (Sigma-Aldrich, Mississauga ON, Canada), or with 50 ml of 1 mM arachidonic acid (Girard et al., 2007) in the same solvent, and transferred for seven days in a Conviron growth chamber (Conviron, Winnipeg MB, Canada). Plants sprayed with 50 ml of 0.1% (v/v) Triton X-100 in water were used in parallel as negative controls to avoid confounding effects due to experimental conditions. Two or three 1-cm^2 leaf discs were harvested from the third main stem leaf (see Robert et al., 2013) after seven days, as source material for protein and RNA extraction. The leaf samples were frozen immediately in liquid nitrogen and stored at −80° C. until protein or RNA extraction. Three to five biological (plant) replicates were used for each treatment, to allow for statistical treatment of the data. Two gene vectors were used for the agroinfiltration assays: an engineered pcambia2300 vector encoding the light and heavy chains of C5-1 fused to an N-terminal signal peptide sequence for cellular secretion (see Goulet et al., 2012 for details on gene construct); and the original (“empty”) pcambia2300 binary vector (CAMBIA, Canberra, Australia) as a control for agroinfection. The two binary vectors were electroporated into A. tumefaciens strain LBA4404 and the cultures were maintained in Luria-Bertani (LB) medium supplemented with 50 μg/ml kanamycin and 50 μg/ml rifampicin. For infiltration, bacteria were grown to stable phase at 28° C. to an OD600 of 1.0 and collected by centrifugation at 2,000 g. The bacterial pellets were resuspended in 10 mM 2-[N-morpholino] ethanesulfonic acid] (MES) buffer, pH 5.8, containing 100 μM acetosyringone and 10 mM MgCl2. Leaf infiltration was performed using a needle-less syringe as described earlier (D'Aoust et al., 2009), after mixing the C5-1 antibody (or empty vector) agrobacterial suspension with an equal volume of bacterial suspension carrying a binary vector for the protein silencing suppressor p19 (Voinnet et al., 2003). Infiltrated tissue for molecular characterization was collected six days post-infection (i.e. seven days post-MeJA or arachidonate treatment), unless otherwise indicated. Three to five biological (plant) replicates were used for each treatment to allow for statistical analyses. ELISA plates for C5-1 antibody quantification (Becton Dickinson, Mississauga ON, Canada) were coated with 3.75 μg/ml goat anti-mouse heavy chain-specific IgG1 (Sigma-Aldrich) in 50 mM carbonate buffer (pH 9.0) at 4° C. for 16-18 h. The plates were washed three times in 10 mM phosphate-buffered saline containing 0.1% (v/v) Tween 20 (PBS-T), blocked through a 1-h incubation at 37° C. in 1% (w/v) casein in phosphate-buffered saline (PBS) (Pierce, Rockford Ill., USA), and washed three times in PBS-T. A standard curve was generated for each plate with 0, 4, 8, 16, 24, 32, 40 and 60 ng/ml of purified mouse IgG1 (Sigma-Aldrich). All dilutions (controls and samples) were performed in a control extract obtained from leaf tissue infiltrated with a mock inoculum so that any matrix effect was eliminated. The plates were incubated with protein samples for 1 h at 37° C., washed three times in PBS-T and then incubated with peroxidase-conjugated goat anti-mouse IgG (H+L) antibodies (0.02 μg/ml in blocking solution) (Jackson ImmunoResearch) for 1 h at 37° C. After additional washes with PBS-T, the plates were incubated with the 3,3′,5,5′-tetramethylbenzidine Sure Blue peroxidase substrate (KPL, Gaithersburg Md., USA). The reaction was stopped by the addition of 1 N HCl and the absorbance was read at 450 nm. Three independent (biological) replicates were used for each assay.

In the case of CCCCC/C=C\C/C=C\C/C=C\C/C=C\CCCC(=O)O [arachidonic acid], the C5-1 yield change was “No yield increase”.
